“Also recorded” adds a separate entry of the source.
Key:
PDE1 = settings: cited from earlier work
[1] = system: Immature Sprague Dawley CD (SD) BR female rats; assay: In vivo Rat Follicle Maturation Assay (ovulated oocytes after r-hCG); settings: for ovulatable oocytes compared with high dose of FSH alone: 0.4 mg/kg combined with low dose of FSH; for effect on FSH-induced follicle maturation: in vivo, with FSH
PDE5 = PDE5 (Homo sapiens, UniProt O76074); settings: cited from earlier work
[2] = system: Immature Sprague Dawley CD (SD) BR female rats; assay: Histological count of secondary and antral follicles in rat ovaries; assay type: in vivo
PDE3 = settings: cited from earlier work
[3] = test compound 25 mg/kg×4 injections s.c. in NP3S with Low Dose FSH
[4] = test compound 1 mg/kg×4 injections s.c. in NP3S with Low Dose FSH
[5] = test compound 1 mg/kg×4 s.c. in NP3S with Low Dose FSH
[6] = test compound 5 mg/kg×4 injections s.c. in NP3S with Low Dose FSH
[7] = test compound 5 mg/kg×4 s.c. in NP3S with Low Dose FSH
[8] = test compound 25 mg/kg×4 s.c. in NP3S with Low Dose FSH
[9] = test compound 5 mg/kg×4 s.c. in aqueous vehicle with Low Dose FSH

5′-Methyl-2′(biphenylylmethyl)-3′-(phenylmethyl)spiro[cyclopentane-1,7′(8′h)-[3H]imidazo[2,1-b]purin]-4(5′h)-one [Compound no. 33]
IC50 (PDE1): 0.6 nM | average number of oocytes per rat [1, 3]: 27 | Follicular growth activity with Low FSH? [1]: YES | IC50 (PDE5): 200 nM

COc1ccc([C@]2(C#N)CC[C@@H](C(=O)O)CC2)cc1OC1CCCC1 [ARIFLO (Cilomilast), Cilomilast]
Follicular growth activity with Low FSH? [1]: Inhibits follicular growth

COc1ccc([C@H](Cc2ccncc2)c2ccccc2)cc1OC1CCCC1 [CDP840]
Follicular growth activity with Low FSH? [1]: Inhibits follicular growth

OCCN(CCO)c1nc(N2CCCCC2)c2nc(N(CCO)CCO)nc(N3CCCCC3)c2n1 [Dipyridamole]
average number of oocytes per rat [1, 4]: 7.5 | rats ovulated [1, 5]: 7 out of 10 | average number of oocytes per rat [1, 6]: 6.8 | rats ovulated [1, 7]: 6 out of 10 | average number of oocytes per rat [1, 3]: 6.2 | rats ovulated [1, 8]: 10 out of 10 | Follicular growth activity with Low FSH? [1]: YES

CCCOc1cc([C@]2(C)CNC(=O)O2)ccc1OC [Mesopram]
follicular maturation, lower dose series ([1]; 0.032, 0.016, 0.08 mg/kg together with a low dose of FSH, significance at 0.08 mg/kg): dose dependent increase in follicular maturation | follicular maturation versus low FSH alone ([1]; 0.08, 0.4, and 2 mg/kg/day together with a low dose of FSH): significant enhancement of follicular maturation | follicular maturation at higher doses ([1]; higher doses of the 0.08-2 mg/kg/day series, with low dose FSH): decrease in follicular maturation

COc1ccc(C(=O)Nc2c(Cl)cncc2Cl)cc1OC1CCCC1 [Piclamilast]
ovulatable oocytes compared with high dose of FSH alone [1]: produces more ovulatable oocytes than even the high dose of FSH alone | follicle maturation, compound alone ([1]; 2 mg/kg, without co-administration of FSH): did induce follicle maturation; also recorded: increased the hCG ovulatable oocytes | follicle maturation, compound alone ([1]; 0.08 and 0.4 mg/kg, absence of exogenous FSH): not sufficient to induce follicle maturation | follicle maturation (number of ovulatable oocytes) ([1]; in the presence of low doses of FSH): very marked induction in follicle maturation | effect on FSH-induced follicle maturation [1]: increased FSH-induced follicle maturation

O=C(Nc1c(Cl)cncc1Cl)c1ccc(OC(F)F)c(OCC2CC2)c1 [Roflumilast]
ovulatable oocytes compared with high dose of FSH alone [1]: produces more ovulatable oocytes than even the high dose of FSH alone | effect on FSH-induced follicle maturation [1]: increased FSH-induced follicle maturation

CCCc1nn(C)c2c(=O)[nH]c(-c3cc(S(=O)(=O)N4CCN(C)CC4)ccc3OCC)nc12 [Sildenafil, 5-[2-ethoxy-5-(4-methyl-1-piperazinylsulphonyl)phenyl]-1-methyl-3-n-propyl-1,6-dihydro-7H-pyrazolo[4,3-d]pyrimidin-7-one]
total number of antral follicles per rat (2 ovaries) ([2]; Low FSH + 75 mg/kg Sildenafil): 7.4 | total number of secondary follicles per rat (2 ovaries) ([2]; Low FSH + 75 mg/kg Sildenafil (25 mg/kg×3)): 84 | IC50 (PDE1): 260 nM | number of ovulated oocytes per rat as compared to Low Dose FSH alone plus aqueous vehicle control ([1]; 1, 5 and 25 mg/kg×4 s.c. in aqueous vehicle with Low Dose FSH): dose-related increase | average number of oocytes per rat [1, 4]: 3.5 | rats ovulated [1, 5]: 6 out of 8 | average number of oocytes per rat [1, 6]: 5.5 | rats ovulated [1, 7]: 5 out of 8 | average number of oocytes per rat [1, 9]: 20 | rats ovulated [1, 9]: 7 out of 8 | average number of oocytes per rat [1, 3]: 6.9 | rats ovulated [1, 8]: 7 out of 8 | Follicular growth activity with Low FSH? [1]: YES | IC50 (PDE3): […]

CN1CC(=O)N2[C@H](c3ccc4c(c3)OCO4)c3[nH]c4ccccc4c3C[C@@H]2C1=O [Tadalafil, (6R,12aR)-2,3,6,7,12,12a-hexahydro-2-methyl-6-(-3,4-methylenedioxyphenyl)pyrazino[2′,1′:6,1]pyrido[3,4-b]indole-1,4-dione]
IC50 (PDE1): > 30000 nM | average number of oocytes per rat ([1]; test compound 25 mg/kg×4 s.c. in water with Low Dose FSH): 16 | Follicular growth activity with Low FSH? [1]: YES

CCCOc1ccccc1-c1nc2nn[nH]c2c(=O)[nH]1 [Zaprinast]
IC50 (PDE1): 9400 nM | average number of oocytes per rat [1, 4]: 3.25 | rats ovulated [1, 5]: 6 out of 10 | average number of oocytes per rat [1, 6]: 6.4 | rats ovulated [1, 7]: 9 out of 10 | average number of oocytes per rat [1, 3]: 9.5 | rats ovulated [1, 8]: 10 out of 10 | Follicular growth activity with Low FSH? [1]: YES | IC50 (PDE3): > 100000 nM

(6aR,9aS)-2-(Biphenylylmethyl)-5,6a,7,8,9,9a-hexahydro-5-methyl-3(phenylmethyl)cyclopent[4,5]imidazo-[2,1-b]purin-4(3H)-one [Compound no. 31]
IC50 (PDE1): 0.07 nM | average number of oocytes per rat [1, 3]: 18 | Follicular growth activity with Low FSH? [1]: YES | IC50 (PDE5): 305 nM
